Test [1] concerns BM3250, S. aureus clinical isolate. As to the kind of experiment: MIC by serial twofold dilutions in MHA, strain BM3250. The format is cell-based. As to the method:
(§1) Staphylococci were grown in Brain Heart Infusion (Difco Laboratories, Detroit, Mich.), and E. coli cells were grown in Luria broth (10 g.1^−1 of tryptone, 5 g.^−1 of yeast extract, and 10 g.1^−1 of NaCl) Solid media contained 15 g.1^−1 of agar. Bacteria were incubated at 37° C. and for liquid cultures with agitation. Susceptibility to antibiotics was tested on Mueller-Hinton agar (MHA) (Diagnostics Pasteur, Marne-la-Coquette, France).
(§2) Susceptibility to antibiotics was determined by a disk diffusion assay (12) with commercially available antibiotic disks (Diagnostics Pasteur) and disks prepared in our laboratory as described previously (18). MICs of pristinamycin IIA and pristinamycin (Rhône-Poulenc Rorer) were determined with serial twofold dilutions of antibiotics in MHA, as described previously (2, 17).

Test [2] deals with BM3318, S. aureus clinical isolate. Nature of the test: MIC by serial twofold dilutions in MHA, strain BM3318. Type of test: cell-based. As to the method: as §1, §2
In test [3] the test system is BM3252, S. aureus clinical isolate. As to the kind of experiment: MIC by serial twofold dilutions in MHA, strain BM3252. The format is cell-based. As to the method: as §1, §2
The test system of test [4] is RN4220 [pRB374]. As to the kind of experiment: MIC by serial twofold dilutions in MHA, transformant with the empty vector. The conditions noted are these: S. aureus RN4220 [pRB374], vector without vgaC. Type of test: cell-based. As to the method:
as §1, §2
(§3) A DNA fragment of 1827-bp including vgaC was amplified with primers C and D (FIG. 1) from the cellular DNA of BM3327. This amplicon was cleaved with BamHl and KpnI and inserted between the BamHl and KpnI sites of the shuttle vector, pRB374 (11), downstream from the vegII promoter carried by this vector. The resulting plasmid, pIP1810, was introduced by electroporation into the S. aureus recipient RN4220. It conferred resistance to pristinamycin IIA (MICs: 32 mg.1^−1 for RN4220 [pIP18101, and 2 mg.1^−1 for RN4220 [pRB374]).

Test [5] relates to BM3249, S. aureus clinical isolate. As to the kind of experiment: MIC by serial twofold dilutions in MHA, strain BM3249. The format is cell-based. How it is done:
as §1, §2

The test system of test [6] is BM3327, S. aureus clinical isolate. Nature of the test: MIC by serial twofold dilutions in MHA, strain BM3327. Type of test: cell-based. How it is done: as §1, §2
Test [7] concerns BM21926, S. aureus transformant: RN4220 (pIP 1810). As to the kind of experiment: MIC by serial twofold dilutions in MHA, transformant carrying vgaC. As to conditions: S. aureus RN4220 (pIP1810, carries vgaC) = BM21926. The format is cell-based. How it is done:
as §1, §2, §3

Test [8] has as its system four S. aureus isolates (BM3249, BM3250, BM3252 and BM3327). As to the kind of experiment: MICs of the four isolates used in filter mating. The format is cell-based. As to conditions: range over BM3249, BM3250, BM3252 and BM3327. As to the method: as §1, §2
Each of the four S. aureus isolates (BM3249, BM3250, BM3252 and BM3327: Table 1) resistant to PIIA (MICs : 64-128 mg. 1^−1) and related antibiotics was crossed on a membrane filter with the S. aureus recipient strain, ISP1127 (26). No transcipients were obtained by selection on pristinamycin IIA (frequency<10^−10 transcipients/donor).

Test [9] has as its system resistant staphylococci. The conditions noted are these: staphylococci resistant to A compounds; cited from earlier work.

The structures appear in SMILES notation.

For the compound `CC1=C\[C@@H](O)CC(=O)Cc2nc(co2)C(=O)N2CCC=C2C(=O)O[C@H](C(C)C)[C@H](C)/C=C/C(=O)NC\C=C\1` [pristinamycin IIA], the MIC in [1] was determined as 64 mg.1^−1; in test [2] it was 128 mg.1^−1; in test [3] it was 64 mg.1^−1; in [4], 2 mg.1^−1; in test [5], 64 mg.1^−1; in test [6] it was 128 mg.1^−1. Also, the MIC is 32 mg.1^−1 in test [7] and “SgA (32 mg.1^−1) Km Nm Tm” in test [7] (listed as SgA). Further, the MICs in test [8] is given as 64-128 mg. 1^−1; in test [9], 8 mg.1^1.

Values taken from US20020102678A1, “Staphylococcal gene, vgaC, conferring resistance to streptogramin A and related compounds” (priority 2000, published 2002).
